Reference: US6579890B1, “Matrix metalloprotease inhibitors” (Syntex (U.S.A.) Inc., priority 1993, dated 2003)

With `CC(C)(C)[C@H](NC(=O)[C@H](CCCc1ccc(-c2ccccc2)cc1)CC(=O)O)C(=O)Nc1ccncc1` [Example 32A, N-(2R-carboxymethyl-5-(biphen-4-yl)pentanoyl)-L-t-leucine-N′-(pyridin-4-yl)carboxamide] the melting point was 198 to 201 °C.
